Here are results for 26 compounds from the PolyMetriX glass transition set.

SMILES strings stand for the structures.

`*/C=C(/*)CCCOc1ccc(OC(=O)c2ccc(OC)cc2)cc1` (repeat unit) gave a glass transition temperature of 20.00 °C.
With `*C(=O)NCCN(CCNC(=O)c1cccc(N2C(=O)c3ccc(*)cc3C2=O)c1)c1ccc(/C=C/c2ccc([N+](=O)[O-])cc2)cc1` (repeat unit) the figure was 178.00 °C; with `*C(=O)c1cc(C(=O)c2ccc3c(c2)C(=O)N(c2ccc(C(c4ccc(N5C(=O)c6ccc(*)cc6C5=O)cc4)(C(F)(F)F)C(F)(F)F)cc2)C3=O)cc(-c2ccccc2)c1` (repeat unit), 260.50 °C.
Under `*CCCCCCOC(=O)NCCCCNC(=O)O*` (repeat unit) stands 16.00 °C; under `*CCCCNC(=O)c1ccc(C(=O)N*)c(Sc2ccccc2)c1` (repeat unit), 136.00 °C; under `*CCCNC(=O)O*` (repeat unit), 26.00 °C.
Take `*CCCNC(=O)c1ccc(C(=O)N*)cc1` (repeat unit): the glass transition temperature was 180.00 °C.
Under `*CCNC(=O)c1ccc(C(=O)N*)c(Sc2ccccc2)c1` (repeat unit) stands 172.00 °C; under `*CCNC(=O)c1ccccc1O*` (repeat unit), 84.00 °C.
As to `*CNC(=O)OCC(OC(=O)NCc1ccc(*)o1)c1ccco1` (repeat unit), the glass transition temperature amounted to 30.00 °C.
Turning to `*COC(=O)NCc1ccc(CNC(=O)OCc2ccc(*)o2)o1` (repeat unit), the glass transition temperature worked out at 75.00 °C.
Regarding `*NCCCCCCNc1nc(*)nc(-c2ccccc2)n1` (repeat unit), the glass transition temperature came to 95.00 °C.
`*Nc1cc(NC(=O)NC2CCC(CC3CCC(NC(*)=O)CC3)CC2)cc(C(=O)Nc2cccc3c2C(=O)c2ccccc2C3=O)c1` (repeat unit) gave a glass transition temperature of 156.00 °C.
The compound `*Nc1cc(NC(=O)c2ccc(-c3ccc(C(*)=O)cc3)cc2)cc(-c2nnc(-c3ccccn3)o2)c1` (repeat unit) came in with a glass transition temperature of 120.00 °C.
Compound `*Nc1cc(NC(=O)c2ccc(C(*)=O)cc2)cc(-c2nnc(-c3ccccn3)o2)c1` (repeat unit) returned a glass transition temperature of 230.00 °C.
As to `*Nc1ccc(N[Se]*)cc1` (repeat unit), the glass transition temperature was determined as 55.00 °C.
As for `*Nc1cccc2c(NC(=O)Nc3cc(NC(*)=O)cc(C(=O)Nc4ccc5c(c4)C(=O)c4ccccc4C5=O)c3)cccc12` (repeat unit), the glass transition temperature amounted to 178.00 °C.
In turn, `*Nc1cccc2c(NC(=O)Nc3cc(NC(*)=O)cc(C(=O)Nc4cccc5c4C(=O)c4ccccc4C5=O)c3)cccc12` (repeat unit) showed a glass transition temperature of 185.00 °C.
Compound `*Oc1ccc(C(=O)NNC(=O)c2ccc(C(=O)NNC(=O)c3ccc(OC(=O)c4cccc(C(*)=O)c4)cc3)cc2)cc1` (repeat unit) showed a glass transition temperature of 175.00 °C.
On to `*Oc1ccc(C(=O)NNC(=O)c2cccc(C(=O)NNC(=O)c3ccc(OC(=O)c4cccc(C(*)=O)c4)cc3)c2)cc1` (repeat unit), for which the glass transition temperature stood at 180.00 °C.
Compound `*Oc1ccc(CCNC(=O)c2cccc(C(*)=O)c2)cc1` (repeat unit) came in with a glass transition temperature of 152.00 °C.
Under `*Oc1ccc(CCNC(=O)c2cccc(C(=O)NCCc3ccc(OC(=O)c4cccc(C(*)=O)c4)cc3)c2)cc1` (repeat unit) stands 147.00 °C; under `*Oc1ccc(CNC(=O)c2cccc(C(=O)NCc3ccc(OC4COC5C(*)COC45)cc3)c2)cc1` (repeat unit), 83.00 °C.
Under `*Oc1ccc(S(=O)(=O)c2ccc(Oc3ccc(C(=O)c4cc(Br)cc(C(=O)c5ccc(*)cc5)c4)cc3)cc2)cc1` (repeat unit) stands 192.00 °C.
As for `*c1cccc(S(=O)(=O)NCCCCNS(*)(=O)=O)c1` (repeat unit), the glass transition temperature amounted to 82.00 °C.
As for `*c1cccc(S(=O)(=O)NCCCNS(*)(=O)=O)c1` (repeat unit), the glass transition temperature came to 92.00 °C.
